These results are taken from ChEMBL document CHEMBL5380842, “Discovery of a Potent and Selective CCR8 Small Molecular Antagonist IPG7236 for the Treatment of Cancer” (J Med Chem, 2023).

A short description of data set [1]: Apparent permeability of compound across apical to basal side in human Caco2 cells at 10 uM incubated for 120 mins by LC-MS/MS analysis. The note with it: Caco-2. For orientation: Caco-2 cells form a polarised layer with tight junctions and transporters.
A short description of data set [2]: Apparent permeability of compound across basal to apical side in human Caco2 cells at 10 uM incubated for 120 mins by LC-MS/MS analysis. The note with it: Caco-2.
For data set [3], the target named is C-C chemokine receptor type 8 (Homo sapiens, UniProt P51685). The experiment in a line: Antagonist activity against CCR8 (unknown origin) expressed in CHO-K1 cells preincubated for 1 hr followed by CCL1 addition measured after 24 hrs by ONE-Glo assay. It counts as cell-based.
Sequence of C-C chemokine receptor type 8 (P51685 whole entry): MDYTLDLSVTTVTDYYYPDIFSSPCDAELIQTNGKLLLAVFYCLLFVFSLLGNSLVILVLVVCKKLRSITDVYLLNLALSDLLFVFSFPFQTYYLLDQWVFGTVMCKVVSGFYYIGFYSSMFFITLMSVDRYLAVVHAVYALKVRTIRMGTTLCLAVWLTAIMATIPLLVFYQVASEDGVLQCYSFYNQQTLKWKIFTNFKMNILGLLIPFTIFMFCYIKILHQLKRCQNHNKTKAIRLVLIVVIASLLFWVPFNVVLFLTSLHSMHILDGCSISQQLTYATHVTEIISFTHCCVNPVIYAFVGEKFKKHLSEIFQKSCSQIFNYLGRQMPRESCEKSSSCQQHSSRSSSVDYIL
The nature of data set [4]: Efflux ratio of apparent permeability across basolateral to apical side over apical to basolateral side in human Caco-2 cells at 10 uM incubated for 120 mins by LC-MS/MS analysis.
The nature of data set [5]: Solubility of compound in PBS at pH 7.4 incubated for 2 hrs by LC-MS/MS analysis. It counts as physicochemical.

Each structure is given as a SMILES string. In brackets after ≈: the same amount, converted by molar mass.

Turning to `Cc1cc(S(=O)(=O)N[C@H](C2CC2)C2CCN(C)CC2)ccc1NC(=O)c1ccccc1C`, in data set [1], the Papp A→B at 2 h, 10 µM was found to be 0.3 ×10⁻⁶ cm/s. Moreover, in data set [2], the Papp B→A at 2 h, 10 µM came out at 3.6 ×10⁻⁶ cm/s.
`Cc1ccccc1C(=O)Nc1ccc(S(=O)(=O)Nc2cccc3c2N(CCN(C)C)C(=O)CO3)c2ccccc12` showed an IC50 in data set [3] of over 1000 nM.
As for `Cc1ccccc1C(=O)Nc1ccc(S(=O)(=O)N[C@H](C)C2CCN(C)CC2)cc1C#N`, in data set [3], the 50% inhibitory concentration (IC50) is 33 nM. Also, the efflux ratio at 2 h, 10 µM in data set [4] turned out to be 13.5. For the same compound, the apparent permeability from apical to basolateral (Papp A→B) at 2 h, 10 µM in data set [1] came to 0.2 ×10⁻⁶ cm/s. In data set [2], the Papp B→A at 2 h, 10 µM came to 2.7 ×10⁻⁶ cm/s.
The compound `CCCN1CCN(c2ccc(C)c(NS(=O)(=O)c3ccc(NC(=O)c4ccccc4C)c4ccccc34)c2)CC1` yielded a 50% inhibitory concentration (IC50) in data set [3] of over 1000 nM.
On the same count and under the same terms, as for `Cc1ccccc1C(=O)Nc1ccc(S(=O)(=O)NC2CCN(C(=O)N3CCN(C)CC3)CC2)c2ccccc12`, the figure is 4 nM; as for `CCCC(=O)N1CCCC(CNS(=O)(=O)c2ccc(NC(=O)c3ccccc3C)c3ccccc23)C1` (stereo not given), over 1000 nM; as for `Cc1ccccc1C(=O)Nc1ccc(S(=O)(=O)NC(C)C2CCCCN2)c2ccccc12` (stereo not given), over 1000 nM.
The same measure, in the same setting: as for `CCCN1CCCN(c2cc(NS(=O)(=O)c3ccc(NC(=O)c4ccccc4C)c4ccccc34)ccc2OC)CC1`, the figure is over 1000 nM.
`Cc1cc(S(=O)(=O)N[C@H](C)C2CCN(C)CC2)ccc1NC(=O)c1ccc(Cl)cc1C` came in with a concentration for half-maximal inhibition (IC50) in data set [3] of 1.7 nM. Further, the efflux ratio at 2 h, 10 µM in data set [4] amounted to 17.6. Moreover, the apparent permeability from apical to basolateral (Papp A→B) at 2 h, 10 µM in data set [1] amounted to 1.1 ×10⁻⁶ cm/s. The Papp B→A at 2 h, 10 µM in data set [2] was 19.4 ×10⁻⁶ cm/s.
As for `Cc1cc(S(=O)(=O)N[C@H](C)C2CCN(C)CC2)ccc1NC(=O)c1cc(Cl)ccc1C`, 1.7 nM corresponded to half-maximal inhibition in data set [3] (IC50). Besides, the efflux ratio at 2 h, 10 µM in data set [4] was found to be 19.6. Moreover, in data set [1], the Papp A→B at 2 h, 10 µM was found to be 1.6 ×10⁻⁶ cm/s. Further, the Papp B→A at 2 h, 10 µM in data set [2] turned out to be 31.4 ×10⁻⁶ cm/s.
Turning to `Cc1cc(S(=O)(=O)N[C@H](C)C2CCN(C)CC2)ccc1NC(=O)c1ccsc1C`, the Papp A→B at 2 h, 10 µM in data set [1] came to 1.5 ×10⁻⁶ cm/s. Also, the Papp B→A at 2 h, 10 µM in data set [2] came to 25.9 ×10⁻⁶ cm/s.
As for `CCCN1CCN(c2cccc(NS(=O)(=O)c3ccc(NC(=O)c4ccccc4C)c4ccccc34)c2C)CC1`, the IC50 in data set [3] is over 1000 nM.
The compound `Cc1cc(S(=O)(=O)N[C@H](C)C2CCN(C)CC2)ccc1NC(=O)C1CCCCCC1` yielded an IC50 in data set [3] of 28 nM. Also, the efflux ratio at 2 h, 10 µM in data set [4] was determined as 8.9. Moreover, the Papp A→B at 2 h, 10 µM in data set [1] stood at 2 ×10⁻⁶ cm/s. The basolateral-to-apical permeability (Papp B→A) at 2 h, 10 µM in data set [2] was 17.7 ×10⁻⁶ cm/s.
Regarding `Cc1cc(S(=O)(=O)N[C@H](C)C2CCN(C)CC2)c(Cl)cc1NC(=O)c1ccccc1C`, in data set [1], the Papp A→B at 2 h, 10 µM was determined as 2 ×10⁻⁶ cm/s. In addition, the basolateral-to-apical permeability (Papp B→A) at 2 h, 10 µM in data set [2] is 25.5 ×10⁻⁶ cm/s.
As to `Cc1ccccc1C(=O)Nc1ccc(S(=O)(=O)N[C@H](C)C2CCN(C)CC2)cc1Cl`, the apparent permeability from apical to basolateral (Papp A→B) at 2 h, 10 µM in data set [1] stood at 0.7 ×10⁻⁶ cm/s. This compound registered a solubility at 2 h in data set [5] of 233 µM (≈ 105 µg/mL). Besides, the basolateral-to-apical permeability (Papp B→A) at 2 h, 10 µM in data set [2] was determined as 25.9 ×10⁻⁶ cm/s.
In data set [3], `Cc1ccccc1C(=O)Nc1ccc(S(=O)(=O)N[C@H](C)C23CCN(CC2)CC3)c2ccccc12` showed an IC50 of 303 nM.
As for `Cc1cc(S(=O)(=O)N[C@H](C)C2CCN(C)CC2)c(C)cc1NC(=O)c1ccccc1C`, the Papp A→B at 2 h, 10 µM in data set [1] turned out to be 1 ×10⁻⁶ cm/s. Moreover, in data set [2], the apparent permeability from basolateral to apical (Papp B→A) at 2 h, 10 µM came to 20.1 ×10⁻⁶ cm/s.
The compound `Cc1cc(S(=O)(=O)NCC2CCN(C)CC2)ccc1NC(=O)c1ccccc1C` registered a half-maximal inhibitory concentration (IC50) in data set [3] of 251 nM.
As for `Cc1cc(S(=O)(=O)N[C@H](C)C2CCN(C)CC2)c(F)cc1NC(=O)c1ccccc1C`, the IC50 in data set [3] was 6 nM. In data set [4], the efflux ratio at 2 h, 10 µM is 9. In data set [1], the apparent permeability from apical to basolateral (Papp A→B) at 2 h, 10 µM stood at 2.2 ×10⁻⁶ cm/s. The basolateral-to-apical permeability (Papp B→A) at 2 h, 10 µM in data set [2] is 19.8 ×10⁻⁶ cm/s.
As to `CCCN1CCN(c2ccc(OC)c(NS(=O)(=O)c3ccc(NC(=O)c4ccccc4C)c4ccccc34)c2)CC1`, in data set [3], the IC50 was over 1000 nM.
For `CCc1cc(S(=O)(=O)N[C@H](C)C2CCN(C)CC2)ccc1NC(=O)c1ccccc1C`, the apical-to-basolateral permeability (Papp A→B) at 2 h, 10 µM in data set [1] turned out to be 1.5 ×10⁻⁶ cm/s. In data set [2], the Papp B→A at 2 h, 10 µM amounted to 25.9 ×10⁻⁶ cm/s.
In turn, `COC(=O)CN1CCC([C@@H](C)NS(=O)(=O)c2ccc(NC(=O)c3ccccc3C)c(C)c2)CC1` registered an IC50 in data set [3] of 129 nM.
Turning to `Cc1ccccc1C(=O)Nc1c(C)cc(S(=O)(=O)N[C@H](C)C2CCN(C)CC2)cc1Cl`, in data set [4], the efflux ratio at 2 h, 10 µM turned out to be 17.7. Moreover, the Papp A→B at 2 h, 10 µM in data set [1] turned out to be 1.1 ×10⁻⁶ cm/s. This compound also registered a solubility at 2 h in data set [5] of 247 µM (≈ 115 µg/mL). The Papp B→A at 2 h, 10 µM in data set [2] came to 19.5 ×10⁻⁶ cm/s.
In turn, `COCCN1CCC([C@@H](C)NS(=O)(=O)c2ccc(NC(=O)c3ccccc3C)c(C)c2)CC1` gave a 50% inhibitory concentration (IC50) in data set [3] of 79 nM.
Consider `Cc1ccccc1C(=O)Nc1ccc(S(=O)(=O)N[C@H](C)C2CCN(C)CC2)c2ccccc12`, for which the Papp A→B at 2 h, 10 µM in data set [1] was 1.3 ×10⁻⁶ cm/s. In data set [5], this compound registered a solubility at 2 h of under 3 µM. Also, the basolateral-to-apical permeability (Papp B→A) at 2 h, 10 µM in data set [2] was found to be 3.4 ×10⁻⁶ cm/s.
As to `CCCC(=O)N1CCCC(C(=O)NS(=O)(=O)c2ccc(NC(=O)c3ccccc3C)c3ccccc23)C1` (stereo not given), in data set [3], the IC50 was over 1000 nM.
For `CCCN1CCC([C@@H](C)NS(=O)(=O)c2ccc(NC(=O)c3ccccc3C)c(C)c2)CC1`, the Papp A→B at 2 h, 10 µM in data set [1] turned out to be 2.2 ×10⁻⁶ cm/s. Further, in data set [2], the apparent permeability from basolateral to apical (Papp B→A) at 2 h, 10 µM is 30.4 ×10⁻⁶ cm/s.

Broadly, the Papp A→B is how fast a substance crosses the layer from the apical side. For orientation: Papp B→A means how fast a substance crosses the layer from the basolateral side. For orientation: IC50 means the concentration that gives 50% inhibition. A higher IC50 goes with a need for much substance. A word on the efflux ratio: it is a quotient of directional permeabilities that is used to spot active efflux. As a reminder, the solubility is the concentration that dissolves in the medium under given conditions.
